Laboratory results: patent publication US6638523B1, “Method of treating ulcers” (Nagase & Company, Ltd., priority 1999, dated 2003)

Legend:
[1] = system: ulcers developed in the stomach; experiment: Ethanol-induced gastric ulcer in rats; format: in vivo, Wistar male rats; settings: for ED50: Rattus norvegicus, oral administration 30 min before 1 ml ethanol (99.5%), total ulcer length after 1 h, read-out: ED50 (anti-ulcer action); for anti-ulcer action: oral, carnosic acid 1, 5, 25 mg/kg, carnosol 2.5, 10, 25 mg/kg, ethanol ulcer, FIG. 1 and 2
Experimental: To Wistar male rats (5 rats per group) of 180-200 g body weight fasted for 24 hours before the start of a test, carnosic acid obtained in Example 1 was orally administered in dose levels of 1, 5 and 25 mg per kg body weight, after suspending it in water. Similarly, carnosol obtained in Example 1 was orally administered in dose levels of 2.5, 10 and 25 mg per kg body weight, after suspending it in water. After 30 minutes of the administration, 1 ml of ethanol (99.5%) was orally administered to each rat. After one hour of the ethanol administration, laparotomy was carried out and the lengths of all ulcers developed in the stomach were measured and added up. Similar measurements were carried out on the rats of the control group which received ethanol without receiving the above compounds and the result obtained was compared with the above results.

[2] = system: ulcers developed in the stomach; settings: well known anti-ulcer compound, comparison value; cited from earlier work

Row | Compound | ED50 [1] [mg/kg] | anti-ulcer action [1] | ED50 (anti-ulcer action), comparison compound [2] [mg/kg]
1 | CC(C)c1cc2c(c(O)c1O)[C@@]13CCCC(C)(C)[C@@H]1C[C@@H]2OC3=O [carnosol] | 9.6 | potent anti-ulcer action | 
2 | NC(N)=Nc1nc(CSCCN/C=N/S(=O)(=O)c2ccc(Br)cc2)cs1 [ebrotidine] |  |  | 26.54
3 | CC(C)c1cc2c(c(O)c1O)[C@@]1(C(=O)O)CCCC(C)(C)[C@@H]1CC2 [carnosic acid] | 3.1 | potent anti-ulcer action | 
